Key:
[1] = system: planktonic and biofilm-associated Listeria monocytogenes and Salmonella typhimurium; details: combined with streptomycin; cited from earlier work
[2] = system: biofilms of K. pneumoniae; details: cited from earlier work
[3] = system: Pseudomonas aeruginosa, Staphylococcus aureus and Candida albicans; assay: Antimicrobial efficacy of liposome-encapsulated silver and tea tree oil; assay type: cell-based; details: singly and in combination, in a controlled release liposomal carrier system
Description: The aspects, advantages and/or other features of example embodiments of the present disclosure will become apparent to those skilled in the art, in view of the present detailed description. It should be apparent to those skilled in the art that the described embodiments of the present disclosure provided herein are merely exemplary and illustrative and not limiting. Numerous embodiments of modifications thereof are contemplated as falling within the scope of the present disclosure and equivalents thereto. Unless otherwise noted, technical terms are used according to conventional usage. Any publications mentioned in this specification are indicative of the level of those skilled in the art to which the invention pertains and are incorporated by reference in their entirety. […]

| Compound | interaction with streptomycin [1] | further results |
| --- | --- | --- |
| COc1ccc2cc3[n+](cc2c1OC)CCc1cc2c(cc1-3)OCO2 [berberine] | synergistic effect | – |
| O=CC=Cc1ccccc1 [cinnamaldehyde] | synergistic effect | – |
| O=C(O)c1cn(C2CC2)c2cc(N3CCNCC3)c(F)cc2c1=O [ciprofloxacin] | – | inhibition/eradication of biofilms [2]: inhibit/eradicate biofilms |
| C=CCc1ccc(O)c(OC)c1 [eugenol] | synergistic effect | – |
| Cc1ccc(C(C)C)c(O)c1 [thymol] | synergistic effect | – |
| silver | – | antimicrobial efficacy and effective concentration required [3]: can improve their antimicrobial efficacy as well as reduce the effective concentration required |

From patent US20200397711A1, “MICROPARTICLE COMPOSITIONS FOR TREATMENT OF INFECTION OR DISEASE, METHODS OF MAKING THE SAME, AND METHODS OF TREATING SUBJECTS WITH MICROPARTICLE COMPOSITIONS” (priority 2019, published 2020)
